“Also recorded” adds a separate entry of the source.

The record followed here is patent publication US20250186450A1, “COMBINATION THERAPY COMPRISING DGK INHIBITORS and PD-1/PD-L1 INHIBITORS” (Incyte Corporation, priority 2023, published 2025).

The subject of assay [1] is CT26 syngeneic tumors overexpressing human PD-L1 (Clone299). Nature of the assay: Human PD-1/human PD-L1 dual knock-in model. It is filed as in vivo, human PD-1/human PD-L1 dual Knock-In mice. How it is done:
The in vivo effect of combining Compound 1 plus (R)-1-((7-cyano-2-(3′-(2-(difluoromethyl)-7-((3-hydroxypyrrolidin-1-yl)methyl)pyrido[3,2-d]pyrimidin-4-ylamino)-2,2′-dimethylbiphenyl-3-yl)benzo[d]oxazol-5-yl)methyl)piperidine-4-carboxylic acid (i.e., Compound A) was assessed in 8 to 10 weeks old human PD-1/human PD-L1 dual Knock-In mice (GemPharmatech, Shanghai, China) using CT26 syngeneic tumors overexpressing human PD-L1 (Clone299, Synthego, California). Both Compound 1 and Compound A were suspended in 5% N,N-dimethylacetamide (DMAC)+50 mM Citrate buffer in 0.5% methyl cellulose for oral administration. […] On day 17, tumor dimensions were measured by Vernier calipers, and volume estimated by the formula Volume=[L (long dimension)×W^2 (short dimension)]/2. […] Tumors were measured 3 times per week for the duration of the study. […]
The in vivo effect of Compound 2 plus Anti-PD-L1 (atezolizumab) was assessed in 8 to 10 weeks old human PD-1/human PD-L1 dual Knock-In mice (GemPharmatech, Shanghai, China) using CT26 syngeneic tumors overexpressing human PD-L1 (Clone299, Synthego, California). […] On day 12, tumor dimensions were measured by Vernier calipers, and volume estimated by the formula Volume=[L (long dimension)×W^2 (short dimension)]/2. […] Tumors were measured 3 times per week for the duration of the study. […]

Assay [2] has as its system human CD3+ T cells co-cultured with allogenic dendritic cells. Briefly: Allogenic mixed lymphocyte reaction assay, IFNγ by HTRF. It counts as cell-based. How it is done: To assess the ability of 4-((2S,5R)-4-((3,3-difluorocyclobutyl)(4-(trifluoromethyl)phenyl)methyl)-2,5-dimethylpiperazin-1-yl)-2-methyl-1-(((S)-tetrahydrofuran-2-yl)methyl)-1H-[1,2,4]triazolo[3,4-b]purine (i.e., Compound 2) to further enhance the T cell effector function induced by checkpoint blockade, the combination effect of Compound 2 and anti-PD-1 reagent (retifanlimab and pembrolizumab) was evaluated in an allogenic mixed lymphocyte reaction assay.
In brief, Human PBMCs were isolated from leukopaks (BioIVT) obtained from healthy donors by the Ficoll-Paque (Cytiva 17144002) cell separation method. Monocyte isolation was performed using the Dynabeads Untouched human monocyte kit (Life Technologies 11350D), and monocytes were cultured in 10% FBS RPMI 1640 treated with 100 ng/mL granulocyte-macrophage colony-stimulating factor (R&D Systems 215-GM/CF) and 50 ng/mL IL-4 (R&D Systems 204-IL/CF) for at least 6 days at 37° C. with 5% CO2 to differentiate into dendritic cells. Pan T cells were isolated using the Dynabeads Untouched human T-cell kit (Life Technologies 11344D) and plated at 1×10^5 cells/well in 100 μL of 10% FBS RPMI 1640 in 96-well, round-bottom plates (Costar 3879). […] After 20 hours of incubation at room temperature, the HTRF signal was measured by the PHERAstar FSX microplate reader (BMG Labtech). […]
A general note: In TR-FRET formats the signal depends on donor and acceptor labels being close together.

With `C[C@@H]1CN(c2nc3nncn3c3c2nnn3C[C@H]2CCCO2)[C@@H](C)CN1C(c1ccc(F)cc1)c1ccc(F)cc1` [Example 1, 4-((2S,5R)-4-(Bis(4-fluorophenyl)methyl)-2,5-dimethylpiperazin-1-yl)-1-(((R)-tetrahydrofuran-2-yl)methyl)-1H-[1,2,3]triazolo[4,5-e][1,2,4]triazolo[4,3-a]pyrimidine], the “combination effect on tumor growth delay (Bliss Independence analysis)” value in assay [1] (10 mg/kg Compound 1 QD with 25 mg/kg Compound A BID for 15 days, vs respective controls, FIG. 4) is recorded as “synergistic effect in tumor growth delay”.
As for `Cc1nc2c(N3C[C@@H](C)N(C(c4ccc(C(F)(F)F)cc4)C4CC(F)(F)C4)C[C@@H]3C)nc3nncn3c2n1C[C@@H]1CCCO1` (single isomer, unassigned) [Example 2], in assay [1] (1.5 mg/kg Compound 2 Q2D and Anti-PD-L1 (atezolizumab), FIG. 8), the “TGI, combined with Anti-PD-L1 mAb, vs Anti-PD-L1 mAb control group” value is reported as “statistically significant; also recorded: significant TGI”. For the same compound, the “production of IFNγ, combination vs single agents” value in assay [2] (4 nM Compound 2 plus 0.7 nM pembrolizumab vs anti-PD-1 mAb or Compound 2 single agent, FIG. 5B) is recorded as “statistically significant higher production of IFNγ”; in assay [2] (4 nM Compound 2 plus 0.7 nM retifanlimab vs anti-PD-1 mAb or Compound 2 single agent, FIG. 5A) it was “statistically significant higher production of IFNγ”.
